By IC50 is commonly meant the concentration that gives 50% inhibition.

A value given as a limit tells only on which side of the number the result lay.

These results are taken from patent US20260315468A1, “PHARMACEUTICAL COMPOSITION AND USE THEREOF” (SHANGHAI ALLIST PHARMACEUTICAL CO., LTD., priority 2022, published 2026).

The test system of assay [1] is Ba/F3 EGFR-G719S. Kind of assay: Anti-proliferation, CellTiter-Glo Luminescent Cell Viability Assay. The settings on record: Mus musculus, BaF3, 72 h, 3 days. It counts as cell-based. From the text: (§1) The objective of the test example 1 was to evaluate the anti-proliferation effect of Furmonertinib mesilate on 18 cell lines (Ba/F3 EGFR-G719S, Ba/F3 EGFR-S768I, Ba/F3 EGFR-G724S, Ba/F3 EGFR-L718Q, Ba/F3 EGFR-Del19/G724S, Ba/F3 EGFR-E709H, Ba/F3 EGFR-L747S, Ba/F3 EGFR-E709V, Ba/F3 EGFR-L747V, Ba/F3 EGFR-E709-710>D, Ba/F3 EGFR-E709A, Ba/F3 EGFR-Del19/C797S, Ba/F3 EGFR-L858R/C797S, Ba/F3 EGFR-L747S/G719A, Ba/F3-EGFR-L858R-L718V, Ba/F3-EGFR-L858R-L718Q, Ba/F3-EGFR-E709K-G719A, and Ba/F3 EGFR-L861Q) using standard CellTiter-Glo® Luminescent Cell Viability Assay. Further, AZD9291 was used as control compound.
(§2) Cell culture: Ba/F3 EGFR-G719S, Ba/F3 EGFR-S768I, Ba/F3 EGFR-G724S, Ba/F3 EGFR-L718Q, Ba/F3 EGFR-Del19/G724S, Ba/F3 EGFR-E709H, Ba/F3 EGFR-L747S, Ba/F3 EGFR-E709V, Ba/F3 EGFR-L747V, Ba/F3 EGFR-E709-710>D, Ba/F3 EGFR-E709A, Ba/F3 EGFR-Del19/C797S, Ba/F3 EGFR-L858R/C797S, Ba/F3 EGFR-L747S/G719A, Ba/F3-EGFR-L858R-L718V, Ba/F3-EGFR-L858R-L718Q, Ba/F3-EGFR-E709K-G719A, and Ba/F3 EGFR-L861Q engineered cells were obtained from Kyinno, and maintained at 37° C. with 5% CO2, in the RPMI1640 media supplemented with 10% fetal bovine serum.
(§3) The cells during the logarithmic growth period were harvested and counted by using blood counting chamber. The cell viability was over 90% which was determined by trypan blue assay. The cell concentration was adjusted with culture medium. 90 μl cell suspensions was added to two 96-well plates to obtain the final cell density of 3000 cells per well. The plates were incubated in humidified incubator at 37° C. with 5% CO2.
(§4) The solution of tested compounds (Furmonertinib mesilate and AZD9291) was diluted 1000-fold with DMSO. Then, said DMSO solution was diluted 100-fold with PBS (Phosphate Buffered Saline) to obtain 10× working solution. And 10× reference control solution was prepared by Phosphate Buffered Saline (PBS). 10 μl working solution (10×) was dispensed to each well (triplicate for each concentration). (The top concentration was 3160 nM, 3.16-fold dilution and 10 different concentrations. The final concentration of DMSO in culture medium was 0.1% [v/v]). The plate was cultured for 3 days.
(§5) On Day 3, CellTiter-Glo® reagent (a luciferase ATP bioluminescence detection reagent) was thawed, and then the cell plate was equilibrated at room temperature for approximately 30 minutes. 100 μl CellTiter-Glo® Reagent which was equal to the volume of cell culture medium present in each well was added. The obtained content was mixed for 5 minutes on an orbital shaker to induce cell lysis. The cell plate was incubated at room temperature for 20 minutes to stabilize luminescent signal. The luminescence was recorded by using Multi-mode Microplate Reader.
(§6) [formula] • blank control: medium control; • vehicle control: culture medium with 0.1% DMSO
(§7) The graphical curves were fitted using a nonlinear regression model with a sigmoidal dose response.
On the technique in general: Cellular ATP, detected with luciferase, serves as a proxy for viable cell number.

In assay [2] the test system is Ba/F3 EGFR-L747S/G719A. The description is as above. Type of assay: cell-based. The settings on record: Mus musculus, BaF3, 72 h, 3 days.
Text: as §1, §2, §3, §4, §5, §6, §7

Assay [3] has as its system Ba/F3 EGFR-S768I. The assay is described as above. It counts as cell-based. The settings on record: Mus musculus, BaF3, 72 h, 3 days.
Text: as §1, §2, §3, §4, §5, §6, §7

The test system of assay [4] is Ba/F3 EGFR-L718Q. The description is as above. Type of assay: cell-based. To be noted: Mus musculus, BaF3, 72 h, 3 days.
Text: as §1, §2, §3, §4, §5, §6, §7

Assay [5] has as its system Ba/F3 EGFR-Del19/C797S. Described as above. To be noted: Mus musculus, BaF3, 72 h, 3 days. Type of assay: cell-based.
Text: as §1, §2, §3, §4, §5, §6, §7

Assay [6] concerns Ba/F3-EGFR-L858R-L718Q. The assay is described as above. Type of assay: cell-based. To be noted: 72 h, 3 days.
Text: as §1, §2, §3, §4, §5, §6, §7

Assay [7] has as its system Ba/F3 EGFR-E709H. The assay is described as above. It counts as cell-based. The settings on record: Mus musculus, BaF3, 72 h, 3 days.
Text: as §1, §2, §3, §4, §5, §6, §7

The subject of assay [8] is Ba/F3 EGFR-L747S. The assay is described as above. It counts as cell-based. To be noted: Mus musculus, BaF3, 72 h, 3 days.
Text: as §1, §2, §3, §4, §5, §6, §7

The test system of assay [9] is Ba/F3 EGFR-L858R/C797S. Described as above. It counts as cell-based. The settings on record: Mus musculus, BaF3, 72 h, 3 days.
Text: as §1, §2, §3, §4, §5, §6, §7

Assay [10] deals with Ba/F3 EGFR-G724S. Described as above. The settings on record: Mus musculus, BaF3, 72 h, 3 days. Type of assay: cell-based.
Text: as §1, §2, §3, §4, §5, §6, §7

In assay [11] the test system is Ba/F3 EGFR-E709V. The description is as above. It counts as cell-based. The settings on record: Mus musculus, BaF3, 72 h, 3 days.
Text: as §1, §2, §3, §4, §5, §6, §7

Assay [12] relates to Ba/F3 EGFR-E709-710 > D. Described as above. Type of assay: cell-based. To be noted: Mus musculus, BaF3, 72 h, 3 days.
Text: as §1, §2, §3, §4, §5, §6, §7

Assay [13] concerns Ba/F3-EGFR-L858R-L718V. The assay is described as above. It counts as cell-based. To be noted: 72 h, 3 days.
Text: as §1, §2, §3, §4, §5, §6, §7

Assay [14] has as its system Ba/F3 EGFR-E709A. The description is as above. Type of assay: cell-based. The settings on record: Mus musculus, BaF3, 72 h, 3 days.
Text: as §1, §2, §3, §4, §5, §6, §7

The subject of assay [15] is Ba/F3 EGFR-L861Q. Described as above. Type of assay: cell-based. To be noted: Mus musculus, BaF3, 72 h, 3 days.
Text: as §1, §2, §3, §4, §5, §6, §7

Assay [16] has as its system Ba/F3 EGFR-L747V. The assay is described as above. The settings on record: Mus musculus, BaF3, 72 h, 3 days. Type of assay: cell-based.
Text: as §1, §2, §3, §4, §5, §6, §7

Assay [17] concerns Ba/F3-EGFR-E709K-G719A. The description is as above. It counts as cell-based. To be noted: 72 h, 3 days.
Text: as §1, §2, §3, §4, §5, §6, §7

Assay [18] relates to Ba/F3 EGFR-Del19/G724S. The description is as above. The settings on record: Mus musculus, BaF3, 72 h, 3 days. It counts as cell-based.
Text: as §1, §2, §3, §4, §5, §6, §7

Assay [19] deals with EGFR PACC mutant NSCLC. The assay can be described thus: Clinical trial, open-label, multi-center, dose-escalation and dose expansion, preliminary tumor assessment. The settings on record: for Maximum SLD % change from baseline: one patient. Type of assay: in vivo, human. From the text:
An open-label, multi-center, dose-escalation and dose expansion study was designed and carried out to evaluate the safety, pharmacokinetics (PK), and preliminary antitumor activity of furmonertinib in patients with advanced or metastatic non-small cell lung cancer (NSCLC) with activating (including uncommon) Epidermal Growth Factor Receptor (EGFR) or Human Epidermal Growth Factor Receptor 2 (HER2) mutations. The first stage of the trial involved a dose escalation trial segment to evaluate once-daily dosing of furmonertinib starting at 240 mg daily, with subsequent patient cohorts to be administered furmonertinib at a higher or lower dose, if necessary, followed by expansion cohorts in defined patient groups with furmonertinib administered at 240 mg (and 160 mg in the case of EGFR PACC mutant NSCLC) daily.
General enrollment criteria include: • 1) Histologically or cytologically documented, locally advanced or metastatic Non-Small Cell Lung Cancer (NSCLC) not amenable to curative surgery or radiotherapy; • 2) Disease that has progressed after at least one available standard therapy; or for whom standard therapy has proven to be ineffective or intolerable; or for whom a clinical trial of an investigational agent is a recognized standard of care; • 3) Documented radiologic disease progression during or after the last systemic anti-cancer therapy before the first dose of furmonertinib; • 4) For patients with Epidermal Growth Factor Receptor (EGFR) mutations sensitive to osimertinib, the patient must have received osimertinib prior to study enrollment in regions where osimertinib is approved, including the US.
Exclusion criteria include: • 1) Treatment with chemotherapy, targeted therapy, biologic therapy or an investigational agent as anti-cancer therapy within […] or 5 elimination half-lives prior to initiation of furmonertinib, whichever is shorter; • 2) Radiation therapy as cancer therapy within 4 weeks prior to initiation of furmonertinib; • 3) Palliative radiation to bone metastases within 2 weeks prior to initiation of furmonertinib; • 4) AE from prior anticancer therapy that have not resolved to Grade ≤1 except for alopecia or Grade ≤2 peripheral neuropathy.

As for `C=CC(=O)Nc1cc(Nc2nccc(-c3cn(C)c4ccccc34)n2)c(OC)cc1N(C)CCN(C)C` [AZD9291, reference compound], the IC50 was 55.4 nM in [1]; 92.1 nM in [2]; 85.5 nM in [3]; over 1000 nM in assay [4]; 1980 nM in assay [5]; 942 nM in assay [6]. Besides, the half-maximal inhibitory concentration (IC50) in assay [7] amounted to 124 nM; in assay [8] it was 37.8 nM; in [9], 2190 nM; in assay [10], 73 nM; in assay [11], 47.6 nM; in assay [12], 197 nM. The concentration for half-maximal inhibition (IC50) stood at 172 nM in assay [13]; 64.2 nM in [14]; 24.6 nM in assay [15]; 53.7 nM in assay [16]; 164 nM in [17]; 16.3 nM in assay [18].

As for `C=CC(=O)Nc1cc(Nc2nccc(-c3cn(C)c4ccccc34)n2)c(OCC(F)(F)F)nc1N(C)CCN(C)C` [furmonertinib, N-{2-{[2-(dimethylamino)ethyl](methyl)amino}-6-(2,2,2-trifluoroethoxy)-5-{[4-(1-methyl-1H-indol-3-yl)pyrimidin-2-yl]amino}pyridin-3-yl}acrylamide], the “Maximum SLD % change from baseline” value in assay [19] (160 mg QD, EGFR mutation E709A + L858R, prior anti-tumor therapy: None) was −40%; in [19] (240 mg QD, EGFR mutation G719A, prior anti-tumor therapy: None) it was −23%; in assay [19] (240 mg QD, EGFR mutation S768I + V769L, prior 1L: CARBOPLATIN + PEMETREXED + PEMBROLIZUMAB) it was −30%. For the same compound, the “tumor size and clinical activity” value in assay [19] (240 mg QD and 160 mg QD, NSCLC patients with EGFR PACC mutation, no previous TKI treatment) is “a decrease in tumor size and clinical activity”.
